Data reported in ChEMBL document CHEMBL1201862, “PubChem BioAssay data set” (2004).
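Protocol summary: plate cells (96-well), add compound at 5 concentrations, incubate 48 h, interpolate endpoints linearly. GI50 is the concentration that inhibits growth by half.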 Activity calls are given as the source filed them. No stated cut-off is given here; in the data, active = GI50 up to about 1.1 µM and inactive = higher.

Key:
Assay in all cases: NCI anticancer screen, dose series, 48 h
OVCAR-8 = system: OVCAR-8
UO-31 = system: UO-31
UACC-257 = system: UACC-257
HCC 2998 = system: HCC 2998
CCRF-CEM = system: CCRF-CEM
HOP-92 = system: HOP-92
LOX IMVI = system: LOX IMVI
A498 = system: A498
SNB-75 = system: SNB-75
TK-10 = system: TK-10
MOLT-4 = system: MOLT-4
Malme-3M = system: Malme-3M
SF-539 = system: SF-539
T47D = system: T47D
RXF 393 = system: RXF 393
MDA-MB-231 = system: MDA-MB-231
EKVX = system: EKVX
HT-29 = system: HT-29
HCT-15 = system: HCT-15
NCI/ADR-RES = system: NCI/ADR-RES

SMILES	GI50 (OVCAR-8)	GI50 (UO-31)	GI50 (UACC-257)	GI50 (HCC 2998)	GI50 (CCRF-CEM)	GI50 (HOP-92)	GI50 (LOX IMVI)	GI50 (A498)	GI50 (SNB-75)	GI50 (TK-10)	GI50 (MOLT-4)	GI50 (Malme-3M)	GI50 (SF-539)	GI50 (T47D)	GI50 (RXF 393)	GI50 (MDA-MB-231)	GI50 (EKVX)	GI50 (HT-29)	GI50 (HCT-15)	GI50 (NCI/ADR-RES)
O=C(Cc1ccccc1)Nn1c(-c2ccccc2)nc2ccccc2c1=O	> 100 µM (inactive)	> 100 µM (inactive)	> 100 µM (inactive)	> 100 µM (inactive)	> 100 µM (inactive)	> 100 µM (inactive)	> 100 µM (inactive)	62.7 µM (inactive)	8.83 µM (inactive)	> 100 µM (inactive)	> 100 µM (inactive)	> 100 µM (inactive)	> 100 µM (inactive)	> 100 µM (inactive)	> 100 µM (inactive)	> 100 µM (inactive)	> 100 µM (inactive)	> 100 µM (inactive)	–	–
Cc1ccc(S(=O)(=O)NC(=O)NS(=O)(=O)O)cc1	> 100 µM (inactive)	> 100 µM (inactive)	> 100 µM (inactive)	–	> 100 µM (inactive)	> 100 µM (inactive)	> 100 µM (inactive)	–	> 100 µM (inactive)	> 100 µM (inactive)	> 100 µM (inactive)	> 100 µM (inactive)	> 100 µM (inactive)	> 100 µM (inactive)	> 100 µM (inactive)	> 100 µM (inactive)	–	> 100 µM (inactive)	> 100 µM	> 100 µM (inactive)
Cn1sc2ccccc2c1=S	9.71 µM (inactive)	15.3 µM (inactive)	8.63 µM (inactive)	28.2 µM (inactive)	2.44 µM (inactive)	16.6 µM (inactive)	1.78 µM (inactive)	48.5 µM (inactive)	6.82 µM (inactive)	24.1 µM (inactive)	4.04 µM (inactive)	9.82 µM (inactive)	5.83 µM (inactive)	–	3.08 µM (inactive)	–	8.69 µM (inactive)	10.7 µM (inactive)	5.5 µM	3.21 µM (inactive)
CCOC(=O)c1c(-c2ccc(O)c(OC)c2)c(C#N)c(=S)n(C2OC(CO)C(O)C(O)C2O)c1-c1ccccc1 (stereo not given)	> 100 µM (inactive)	> 100 µM (inactive)	> 100 µM (inactive)	> 100 µM (inactive)	> 100 µM (inactive)	66.7 µM (inactive)	> 100 µM (inactive)	> 100 µM (inactive)	–	–	54.3 µM (inactive)	–	–	–	> 100 µM (inactive)	–	> 100 µM (inactive)	> 100 µM (inactive)	> 100 µM	> 100 µM (inactive)
COC1OC(CBr)C(OC(c2ccccc2)(c2ccccc2)c2ccccc2)C(OC(c2ccccc2)(c2ccccc2)c2ccccc2)C1OC(c1ccccc1)(c1ccccc1)c1ccccc1 (stereo not given)	27.1 µM (inactive)	14.3 µM (inactive)	> 100 µM (inactive)	65.2 µM (inactive)	> 100 µM (inactive)	17.1 µM (inactive)	> 100 µM (inactive)	78.2 µM (inactive)	–	28.3 µM (inactive)	> 100 µM (inactive)	33.8 µM (inactive)	23.1 µM (inactive)	22.6 µM (inactive)	33.4 µM (inactive)	–	17.5 µM (inactive)	96.6 µM (inactive)	> 100 µM	51.6 µM (inactive)
NC1OC(COC(=O)c2ccccc2)C(O)C(OC(=O)c2ccccc2)C1OC(=O)c1ccccc1 (stereo not given)	17.9 µM (inactive)	33.5 µM (inactive)	18.1 µM (inactive)	–	–	35.2 µM (inactive)	14.4 µM (inactive)	–	18.6 µM (inactive)	61.9 µM (inactive)	14.7 µM (inactive)	16.7 µM (inactive)	–	35.5 µM (inactive)	16.3 µM (inactive)	18.7 µM (inactive)	21.3 µM (inactive)	17.3 µM (inactive)	32.7 µM	33.3 µM (inactive)
COc1cc(N2C(=O)C(=O)C3(CCCCC3)C2=O)cc(OC)c1OC	> 100 µM (inactive)	73.3 µM (inactive)	> 100 µM (inactive)	> 100 µM (inactive)	> 100 µM (inactive)	–	> 100 µM (inactive)	–	> 100 µM (inactive)	> 100 µM (inactive)	> 100 µM (inactive)	> 100 µM (inactive)	> 100 µM (inactive)	> 100 µM (inactive)	> 100 µM (inactive)	–	> 100 µM (inactive)	> 100 µM (inactive)	> 100 µM	> 100 µM (inactive)
CC(NC(=O)C(C)C(=O)NCc1ccc(C(F)(F)F)cc1)C(N)=O (stereo not given)	> 100 µM (inactive)	> 100 µM (inactive)	> 100 µM (inactive)	–	> 100 µM (inactive)	> 100 µM (inactive)	–	–	48.1 µM (inactive)	–	> 100 µM (inactive)	27.9 µM (inactive)	> 100 µM (inactive)	> 100 µM (inactive)	> 100 µM (inactive)	> 100 µM (inactive)	> 100 µM (inactive)	> 100 µM (inactive)	> 100 µM	> 100 µM (inactive)
COC(=O)c1c(-c2ccc(Cl)cc2)cc2c3ccccc3n(C)c2c1C(=O)OC	> 100 µM (inactive)	2.47 µM (inactive)	64.7 µM (inactive)	–	7.85 µM (inactive)	> 100 µM (inactive)	> 100 µM (inactive)	> 100 µM (inactive)	–	> 100 µM (inactive)	23.1 µM (inactive)	> 100 µM (inactive)	> 100 µM (inactive)	–	–	> 100 µM (inactive)	> 100 µM (inactive)	91.6 µM (inactive)	> 100 µM	> 100 µM (inactive)
CC(=O)OC1C(C)OC(OC(=O)C2CCC3C(C2)OC2(CC(OC(=O)/C=C/c4ccccc4)C(C)CO2)C32CO2)C(OC2OC(C)C(O)C(OC(C)=O)C2O)C1O (stereo not given)	< 0.01 µM (active)	0.499 µM (active)	< 0.01 µM (active)	< 0.01 µM (active)	< 0.01 µM (active)	< 0.01 µM (active)	< 0.01 µM (active)	0.0205 µM (active)	< 0.01 µM (active)	0.0131 µM (active)	< 0.01 µM (active)	< 0.01 µM (active)	< 0.01 µM (active)	< 0.01 µM (active)	< 0.0152 µM (active)	< 0.01 µM (active)	< 0.01 µM (active)	< 0.01 µM (active)	0.319 µM	–
Clc1cccc(-c2sc(-c3ccsc3)cc2Cc2ccsc2)c1	> 10 µM (inactive)	–	> 10 µM (inactive)	> 10 µM (inactive)	> 10 µM (inactive)	> 10 µM (inactive)	> 10 µM (inactive)	–	> 10 µM (inactive)	> 10 µM (inactive)	> 10 µM (inactive)	> 10 µM (inactive)	–	8 µM (inactive)	> 10 µM (inactive)	> 10 µM (inactive)	> 10 µM (inactive)	> 10 µM (inactive)	> 10 µM	–
CCOC(OCC)(OCC)C(Br)CC (stereo not given)	> 100 µM (inactive)	> 100 µM (inactive)	> 100 µM (inactive)	> 100 µM (inactive)	28.2 µM (inactive)	> 100 µM (inactive)	88.1 µM (inactive)	> 100 µM (inactive)	> 100 µM (inactive)	> 100 µM (inactive)	> 100 µM (inactive)	> 100 µM (inactive)	> 100 µM (inactive)	–	> 100 µM (inactive)	–	> 100 µM (inactive)	53.6 µM (inactive)	> 10 µM	–
CCCCCCCC(=O)OCC1OC(n2cc(F)c(=O)[nH]c2=O)C(N)C(OC(=O)CCCCCCC)C1O (stereo not given)	17.8 µM (inactive)	19.5 µM (inactive)	17.8 µM (inactive)	16.5 µM (inactive)	17.6 µM (inactive)	18.4 µM (inactive)	18.5 µM (inactive)	20.3 µM (inactive)	15 µM (inactive)	23.4 µM (inactive)	15.5 µM (inactive)	17.5 µM (inactive)	20.5 µM (inactive)	–	18 µM (inactive)	–	19.1 µM (inactive)	19.3 µM (inactive)	18.5 µM	–
CCOc1ccc(OCC(=O)O)c2c1CCCC2=O	> 100 µM (inactive)	> 100 µM (inactive)	> 100 µM (inactive)	> 100 µM (inactive)	> 10 µM (inactive)	> 100 µM (inactive)	> 100 µM (inactive)	> 100 µM (inactive)	> 100 µM (inactive)	> 100 µM (inactive)	> 100 µM (inactive)	> 100 µM (inactive)	> 100 µM (inactive)	–	> 100 µM (inactive)	–	> 100 µM (inactive)	> 100 µM (inactive)	> 100 µM	–
O=C(O)c1ccccc1C(=O)Nn1cnnc1	> 100 µM (inactive)	> 100 µM (inactive)	> 100 µM (inactive)	> 100 µM (inactive)	> 100 µM (inactive)	> 100 µM (inactive)	> 100 µM (inactive)	–	> 100 µM (inactive)	> 100 µM (inactive)	> 100 µM (inactive)	–	> 100 µM (inactive)	–	> 100 µM (inactive)	> 100 µM (inactive)	> 100 µM (inactive)	> 100 µM (inactive)	> 100 µM	> 100 µM (inactive)
CC(C)[C@]12O[C@H]1[C@@H]1O[C@]13[C@]1(O[C@H]1C[C@H]1C4=C(CC[C@@]13C)C(=O)OC4)[C@@H]2O [TRIPTOLIDE]	0.0203 µM (active)	0.0124 µM (active)	–	0.0183 µM (active)	0.011 µM (active)	0.023 µM (active)	0.00514 µM (active)	0.018 µM (active)	0.0101 µM (active)	< 0.014 µM (active)	0.00764 µM (active)	0.0112 µM (active)	0.00745 µM (active)	–	–	0.0145 µM (active)	0.021 µM (active)	0.0083 µM (active)	0.014 µM	0.0261 µM (active)
